Legend:
human mTOR = target: T1, human mTOR (Homo sapiens, UniProt P42345); test: mTOR Kinase Activity Inhibition Test; assay type: biochemical; details: His-tagged mTOR (1362C), biotinylated peptide substrate, ATP, 3 hours at room temperature, fluorescence resonance energy transfer 665 nm/620 nm; read-out: IC50 value of mTOR enzyme inhibitory activity
T1 construct: the portion corresponding to 1362-2549aa at the C terminus of human mTOR; made in house
How it was run: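 Purified His-tagged human mTOR (1362–2549aa, from HEK293) was used with biotinylated peptide (8 μg/mL in enzyme solution) in HEPES pH 7.5 with 20 mM MnCl2. Compounds were diluted in 20 μM ATP solution, and the reaction ran 3 h at RT. Phospho-S6K(Thr389) HTRF was read as the 665/620 nm ratio, and IC50 came from % inhibition versus controls.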

WM-266-4 cells = test: Cell Proliferation Inhibitory Test; assay type: cell-based; details: Homo sapiens, 72 h, cultured three days with test compound, MTT, read-out: 50% cell proliferation inhibitory activity (GI50 value)
How it was run: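 Cells cultured overnight, then exposed to serially diluted compound for three days; cell amount read by MTT. GI50 solved from 100×[(T−T0)/(C−T0)]=50, with T0 the value at time of compound addition and C the untreated three-day control.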

T1 sequence (P42345 1362-2549): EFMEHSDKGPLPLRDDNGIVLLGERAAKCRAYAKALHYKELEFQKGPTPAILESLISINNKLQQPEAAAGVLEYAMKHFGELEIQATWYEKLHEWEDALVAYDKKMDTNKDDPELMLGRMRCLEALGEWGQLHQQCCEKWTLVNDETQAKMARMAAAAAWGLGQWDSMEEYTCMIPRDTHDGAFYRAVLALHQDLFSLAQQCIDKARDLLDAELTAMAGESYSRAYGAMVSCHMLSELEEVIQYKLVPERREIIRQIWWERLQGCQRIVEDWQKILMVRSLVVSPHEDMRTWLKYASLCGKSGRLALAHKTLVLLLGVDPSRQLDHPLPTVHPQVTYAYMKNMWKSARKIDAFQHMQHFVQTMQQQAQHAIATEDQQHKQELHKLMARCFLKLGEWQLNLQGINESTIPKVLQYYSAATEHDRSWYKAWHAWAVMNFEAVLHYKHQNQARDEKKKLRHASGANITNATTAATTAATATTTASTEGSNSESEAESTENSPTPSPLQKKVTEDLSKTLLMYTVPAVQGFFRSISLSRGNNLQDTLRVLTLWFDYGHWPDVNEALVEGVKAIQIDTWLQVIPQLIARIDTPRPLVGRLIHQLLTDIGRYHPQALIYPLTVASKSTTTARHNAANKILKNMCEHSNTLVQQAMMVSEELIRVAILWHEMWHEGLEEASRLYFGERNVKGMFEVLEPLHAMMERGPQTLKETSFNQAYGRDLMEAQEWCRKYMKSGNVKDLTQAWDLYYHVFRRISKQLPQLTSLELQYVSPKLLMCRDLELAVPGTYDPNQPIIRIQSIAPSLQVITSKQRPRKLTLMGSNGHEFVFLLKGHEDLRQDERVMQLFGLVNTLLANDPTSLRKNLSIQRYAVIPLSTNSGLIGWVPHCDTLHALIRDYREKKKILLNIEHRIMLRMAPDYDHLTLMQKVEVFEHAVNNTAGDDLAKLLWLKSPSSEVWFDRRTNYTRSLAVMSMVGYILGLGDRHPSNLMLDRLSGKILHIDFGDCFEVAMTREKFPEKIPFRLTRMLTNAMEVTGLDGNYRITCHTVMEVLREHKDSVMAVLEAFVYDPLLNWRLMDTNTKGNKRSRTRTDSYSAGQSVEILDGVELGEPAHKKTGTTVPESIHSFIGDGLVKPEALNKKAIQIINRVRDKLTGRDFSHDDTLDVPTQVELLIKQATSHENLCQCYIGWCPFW

## O=c1[nH]c2ncc(-c3cnc4[nH]cc(F)c4c3)cc2n1CC1CCOCC1 [Example 96, 6-(3-Fluoro-1H-pyrrolo[2,3-b]pyridin-5-yl)-1-(tetrahydro-2H-pyran-4-ylmethyl)-1,3-dihydro-2H-imidazo[4,5-b]pyridin-2-one]
Human mTOR
  IC50: < 50 nM
WM-266-4 cells
  GI50: < 3000 nM

## O=c1[nH]c2ncc(-c3cnc4[nH]ccc4c3)cc2n1CC1CCS(=O)(=O)CC1 [Example 97, 1-[(1,1-Dioxidotetrahydro-2H-thiopyran-4-yl)methyl]-6-(1H-pyrrolo[2,3-b]pyridin-5-yl)-1,3-dihydro-2H-imidazo[4,5-b]pyridin-2-one]
Human mTOR
  IC50: < 50 nM
WM-266-4 cells
  GI50: 3000 to 25000 nM

## CO[C@H]1CC[C@H](Cn2c(=O)[nH]c3ncc(-c4cnc5[nH]ccc5c4)cc32)CC1 [Example 98, 1-[(trans-4-Methoxycyclohexyl)methyl]-6-(1H-pyrrolo[2,3-b]pyridin-5-yl)-1,3-dihydro-2H-imidazo[4,5-b]pyridin-2-one]
Human mTOR
  IC50: < 50 nM
WM-266-4 cells
  GI50: < 3000 nM

## CO[C@H]1CC[C@@H](Cn2c(=O)[nH]c3ncc(-c4cnc5[nH]ccc5c4)cc32)CC1 [Example 99, 1-[(cis-4-Methoxycyclohexyl)methyl]-6-(1H-pyrrolo[2,3-b]pyridin-5-yl)-1,3-dihydro-2H-imidazo[4,5-b]pyridin-2-one]
Human mTOR
  IC50: < 50 nM
WM-266-4 cells
  GI50: < 3000 nM

## N#CC1(Cn2c(=O)[nH]c3ncc(-c4cnc5[nH]ccc5c4)cc32)CCOCC1 [Example 100, 4-{[2-Oxo-6-(1H-pyrrolo[2,3-b]pyridin-5-yl)-2,3-dihydro-1H-imidazo[4,5-b]pyridin-1-yl]methyl}tetrahydro-2H-pyran-4-carbonitrile]
Human mTOR
  IC50: < 50 nM
WM-266-4 cells
  GI50: < 3000 nM

## O=c1[nH]c2ncc(-c3cnc4[nH]ccc4c3)cc2n1C[C@H]1CC[C@H](O)CC1 [Example 101, 1-[(trans-4-Hydroxycyclohexyl)methyl]-6-(1H-pyrrolo[2,3-b]pyridin-5-yl)-1,3-dihydro-2H-imidazo[4,5-b]pyridin-2-one]
Human mTOR
  IC50: < 50 nM
WM-266-4 cells
  GI50: < 3000 nM

## O=c1[nH]c2ncc(-c3cnc4[nH]ccc4c3)cc2n1C[C@H]1CC[C@@H](O)CC1 [Example 102, 1-[(cis-4-Hydroxycyclohexyl)methyl]-6-(1H-pyrrolo[2,3-b]pyridin-5-yl)-1,3-dihydro-2H-imidazo[4,5-b]pyridin-2-one]
Human mTOR
  IC50: < 50 nM
WM-266-4 cells
  GI50: < 3000 nM

## O=c1[nH]c2ncc(-c3cnc4[nH]ccc4c3)cc2n1CC1CCC(F)(F)CC1 [Example 103, 1-[(4,4-Difluorocyclohexyl)methyl]-6-(1H-pyrrolo[2,3-b]pyridin-5-yl)-1,3-dihydro-2H-imidazo[4,5-b]pyridin-2-one]
Human mTOR
  IC50: < 50 nM
WM-266-4 cells
  GI50: < 3000 nM

## O=c1[nH]c2ncc(-c3cnc4[nH]ccc4c3)cc2n1CC1CCOC1 (centres unmarked) [Example 107, 6-(1H-Pyrrolo[2,3-b]pyridin-5-yl)-1-(tetrahydrofuran-3-ylmethyl)-1,3-dihydro-2H-imidazo[4,5-b]pyridin-2-one]
Human mTOR
  IC50: < 50 nM
WM-266-4 cells
  GI50: < 3000 nM

## O=c1[nH]c2ncc(-c3cnc4[nH]ccc4c3)cc2n1CC1COCCN1 (centres unmarked) [Example 108, 1-(Morpholin-3-ylmethyl)-6-(1H-pyrrolo[2,3-b]pyridin-5-yl)-1,3-dihydro-2H-imidazo[4,5-b]pyridin-2-one]
Human mTOR
  IC50: < 50 nM
WM-266-4 cells
  GI50: < 3000 nM

## CN1C(=O)COC[C@@H]1Cn1c(=O)[nH]c2ncc(-c3cnc4[nH]ccc4c3)cc21 [Example 109, 1-{[(3S)-4-Methyl-5-oxomorpholin-3-yl]methyl}-6-(1H-pyrrolo[2,3-b]pyridin-5-yl)-1,3-dihydro-2H-imidazo[4,5-b]pyridin-2-one]
Human mTOR
  IC50: < 50 nM
WM-266-4 cells
  GI50: 3000 to 25000 nM

## O=C1COC(Cn2c(=O)[nH]c3ncc(-c4cnc5[nH]ccc5c4)cc32)CN1 (centres unmarked) [Example 110, 1-[(5-Oxomorpholin-2-yl)methyl]-6-(1H-pyrrolo[2,3-b]pyridin-5-yl)-1,3-dihydro-2H-imidazo[4,5-b]pyridin-2-one]
Human mTOR
  IC50: < 50 nM
WM-266-4 cells
  GI50: 3000 to 25000 nM

## CO[C@H]1CC[C@@H](Cn2c(=O)[nH]c3ncc(-c4cnc5[nH]cc(Cl)c5c4)cc32)CC1 [Example 115, 6-(3-Chloro-1H-pyrrolo[2,3-b]pyridin-5-yl)-1-[(cis-4-methoxycyclohexyl)methyl]-1,3-dihydro-2H-imidazo[4,5-b]pyridin-2-one]
Human mTOR
  IC50: < 50 nM
WM-266-4 cells
  GI50: < 3000 nM

## O=c1[nH]c2ncc(-c3cnc4[nH]cc(Cl)c4c3)cc2n1C[C@H]1CC[C@@H](O)CC1 [Example 116, 6-(3-Chloro-1H-pyrrolo[2,3-b]pyridin-5-yl)-1-[(cis-4-hydroxycyclohexyl)methyl]-1,3-dihydro-2H-imidazo[4,5-b]pyridin-2-one]
Human mTOR
  IC50: < 50 nM
WM-266-4 cells
  GI50: < 3000 nM

## O=c1[nH]c2ncc(-c3cnc4[nH]ccc4c3Cl)cc2n1C[C@H]1COCCO1 [Example 117, 6-(4-Chloro-1H-pyrrolo[2,3-b]pyridin-5-yl)-1-[(2S)-1,4-dioxan-2-ylmethyl]-1,3-dihydro-2H-imidazo[4,5-b]pyridin-2-one]
Human mTOR
  IC50: < 50 nM
WM-266-4 cells
  GI50: < 3000 nM

## O=c1[nH]c2ncc(-c3cnc4[nH]cc(F)c4c3)cc2n1C[C@H]1COCCO1 [Example 118, 1-[(2S)-1,4-Dioxan-2-ylmethyl]-6-(3-fluoro-1H-pyrrolo[2,3-b]pyridin-5-yl)-1,3-dihydro-2H-imidazo[4,5-b]pyridin-2-one]
Human mTOR
  IC50: < 50 nM
WM-266-4 cells
  GI50: < 3000 nM

## Cc1nc2[nH]c(=O)n(C[C@H]3COCCO3)c2cc1-c1cnc2[nH]cc(F)c2c1 [Example 119, 1-[(2S)-1,4-Dioxan-2-ylmethyl]-6-(3-fluoro-1H-pyrrolo[2,3-b]pyridin-5-yl)-5-methyl-1,3-dihydro-2H-imidazo[4,5-b]pyridin-2-one]
Human mTOR
  IC50: < 50 nM
WM-266-4 cells
  GI50: < 3000 nM

## O=c1[nH]c2ncc(-c3cnc4[nH]ccc4c3F)cc2n1C[C@H]1COCCO1 [Example 120, 1-[(2S)-1,4-Dioxan-2-ylmethyl]-6-(4-fluoro-1H-pyrrolo[2,3-b]pyridin-5-yl)-1,3-dihydro-2H-imidazo[4,5-b]pyridin-2-one]
Human mTOR
  IC50: < 50 nM
WM-266-4 cells
  GI50: < 3000 nM

## O=c1[nH]c2ncc(-c3cnc4c(c3)CCN4)cc2n1C[C@H]1COCCO1 [Example 121, 6-(2,3-Dihydro-1H-pyrrolo[2,3-b]pyridin-5-yl)-1-[(2S)-1,4-dioxan-2-ylmethyl]-1,3-dihydro-2H-imidazo[4,5-b]pyridin-2-one]
Human mTOR
  IC50: < 50 nM
WM-266-4 cells
  GI50: < 3000 nM

## O=c1[nH]c2ncc(-c3cnc4[nH]ccc4c3C(F)(F)F)cc2n1C[C@H]1COCCO1 [Example 122, 1-[(2S)-1,4-Dioxan-2-ylmethyl]-6-(4-(trifluoromethyl)-1H-pyrrolo[2,3-b]pyridin-5-yl)-1,3-dihydro-2H-imidazo[4,5-b]pyridin-2-one]
Human mTOR
  IC50: < 50 nM
WM-266-4 cells
  GI50: < 3000 nM

## CCc1c(-c2cnc3[nH]c(=O)n(C[C@H]4COCCO4)c3c2)cnc2[nH]ccc12 [Example 123, 1-[(2S)-1,4-Dioxan-2-ylmethyl]-6-(4-ethyl-1H-pyrrolo[2,3-b]pyridin-5-yl)-1,3-dihydro-2H-imidazo[4,5-b]pyridin-2-one]
Human mTOR
  IC50: < 50 nM
WM-266-4 cells
  GI50: < 3000 nM

## Cc1c[nH]c2ncc(-c3cnc4[nH]c(=O)n(C[C@H]5COCCO5)c4c3)c(C)c12 [Example 124, 6-(3,4-Dimethyl-1H-pyrrolo[2,3-b]pyridin-5-yl)-1-[(2S)-1,4-dioxan-2-ylmethyl]-1,3-dihydro-2H-imidazo[4,5-b]pyridin-2-one]
Human mTOR
  IC50: < 50 nM
WM-266-4 cells
  GI50: < 3000 nM

## Cc1c(-c2cnc3[nH]c(=O)n(C[C@H]4COCCO4)c3c2)cnc2[nH]cc(Cl)c12 [Example 125, 6-(3-Chloro-4-methyl-1H-pyrrolo[2,3-b]pyridin-5-yl)-1-[(2S)-1,4-dioxan-2-ylmethyl]-1,3-dihydro-2H-imidazo[4,5-b]pyridin-2-one]
Human mTOR
  IC50: < 50 nM
WM-266-4 cells
  GI50: < 3000 nM

## Cc1c(-c2cnc3[nH]c(=O)n(C[C@H]4COCCO4)c3c2)cnc2[nH]cc(F)c12 [Example 126, 1-[(2S)-1,4-Dioxan-2-ylmethyl]-6-(3-fluoro-4-methyl-1H-pyrrolo[2,3-b]pyridin-5-yl)-1,3-dihydro-2H-imidazo[4,5-b]pyridin-2-one]
Human mTOR
  IC50: < 50 nM
WM-266-4 cells
  GI50: < 3000 nM

## O=c1[nH]c2ncc(-c3cc4cc[nH]c4nc3Cl)cc2n1C[C@H]1COCCO1 [Example 127, 6-(6-Chloro-1H-pyrrolo[2,3-b]pyridin-5-yl)-1-[(2S)-1,4-dioxan-2-ylmethyl]-1,3-dihydro-2H-imidazo[4,5-b]pyridin-2-one]
Human mTOR
  IC50: < 50 nM
WM-266-4 cells
  GI50: < 3000 nM

## Cc1c(-c2cnc3[nH]c(=O)n(C[C@H]4COCCO4)c3c2)cc(F)c2[nH]ccc12 [Example 128, 1-[(2S)-1,4-Dioxan-2-ylmethyl]-6-(7-fluoro-4-methyl-1H-indol-5-yl)-1,3-dihydro-2H-imidazo[4,5-b]pyridin-2-one]
Human mTOR
  IC50: < 50 nM
WM-266-4 cells
  GI50: < 3000 nM

## Cc1nc2[nH]ccc2cc1-c1cnc2[nH]c(=O)n(C[C@H]3COCCO3)c2c1 [Example 129, 1-[(2S)-1,4-Dioxan-2-ylmethyl]-6-(6-methyl-1H-pyrrolo[2,3-b]pyridin-5-yl)-1,3-dihydro-2H-imidazo[4,5-b]pyridin-2-one]
Human mTOR
  IC50: < 50 nM
WM-266-4 cells
  GI50: < 3000 nM

## Nc1c(-c2cnc3[nH]c(=O)n(C[C@H]4COCCO4)c3c2)cnc2[nH]ccc12 [Example 130, 6-(4-Amino-1H-pyrrolo[2,3-b]pyridin-5-yl)-1-[(2S)-1,4-dioxan-2-ylmethyl]-1,3-dihydro-2H-imidazo[4,5-b]pyridin-2-one]
Human mTOR
  IC50: < 50 nM
WM-266-4 cells
  GI50: 3000 to 25000 nM

Source: US8436012B2, “Imidazopyridin-2-one derivatives” (Daiichi Sankyo Company, Limited, priority 2008, dated 2013)
